Experimental data taken from PubChem BioAssay (NCI).
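Test compounds were applied to cells in 96-well plates for 48 hours at 5 doses. Abbreviation: GI50, concentration required for 50% inhibition of growth. TGI denotes the concentration required for complete inhibition of growth.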

Legend:
Experiment in all cases: DTP human tumour cell line panel, 48 h
SF-539 CNS = tested on: SF-539 CNS
TK-10 renal = tested on: TK-10 renal
SW-620 colon = tested on: SW-620 colon
HS 578T breast = tested on: HS 578T breast
MOLT-4 leukemia = tested on: MOLT-4 leukemia
U251 CNS = tested on: U251 CNS
MALME-3M melanoma = tested on: MALME-3M melanoma
A549 NSCLC = tested on: A549 NSCLC
PC-3 prostate = tested on: PC-3 prostate
IGROV1 ovarian = tested on: IGROV1 ovarian
786-0 renal = tested on: 786-0 renal
UACC-257 melanoma = tested on: UACC-257 melanoma
MCF7 breast = tested on: MCF7 breast
OVCAR-8 ovarian = tested on: OVCAR-8 ovarian
UACC-62 melanoma = tested on: UACC-62 melanoma
UO-31 renal = tested on: UO-31 renal
SK-OV-3 ovarian = tested on: SK-OV-3 ovarian
OVCAR-4 ovarian = tested on: OVCAR-4 ovarian
KM12 colon = tested on: KM12 colon
ACHN renal = tested on: ACHN renal
CCRF-CEM leukemia = tested on: CCRF-CEM leukemia
T-47D breast = tested on: T-47D breast
SK-MEL-5 melanoma = tested on: SK-MEL-5 melanoma
NCI-H522 lung = tested on: NCI-H522 lung
HL-60(TB) leukemia = tested on: HL-60(TB) leukemia
MDA-MB-231 breast = tested on: MDA-MB-231 breast
NCI/ADR-RES ovarian = tested on: NCI/ADR-RES ovarian
A498 renal = tested on: A498 renal

SMILES: COc1cc(-c2nc3sc(C)cn3c2/C=C2\C(=O)Nc3ccccc32)c(Br)c(OC)c1OC
- GI50 (SF-539 CNS): 19.2 µM
- TGI (SF-539 CNS): 38.3 µM
- GI50 (TK-10 renal): 32.9 µM
- TGI (TK-10 renal): 77.5 µM
- GI50 (SW-620 colon): 30.6 µM
- TGI (SW-620 colon): > 100 µM
- GI50 (HS 578T breast): 31.5 µM
- TGI (HS 578T breast): 74.6 µM
- GI50 (MOLT-4 leukemia): 36.4 µM
- TGI (MOLT-4 leukemia): > 100 µM
- GI50 (U251 CNS): 22.9 µM
- TGI (U251 CNS): 54.8 µM
- GI50 (MALME-3M melanoma): 26.1 µM
- TGI (MALME-3M melanoma): 78.5 µM
- GI50 (A549 NSCLC): 44 µM
- TGI (A549 NSCLC): > 100 µM
- GI50 (PC-3 prostate): 32.2 µM
- TGI (PC-3 prostate): > 100 µM
- GI50 (IGROV1 ovarian): 23.4 µM
- TGI (IGROV1 ovarian): > 100 µM
- GI50 (786-0 renal): 21.6 µM
- TGI (786-0 renal): 50.5 µM
- GI50 (UACC-257 melanoma): 27.4 µM
- TGI (UACC-257 melanoma): 81.5 µM
- GI50 (MCF7 breast): 5.81 µM
- TGI (MCF7 breast): 43.3 µM
- GI50 (OVCAR-8 ovarian): > 100 µM
- TGI (OVCAR-8 ovarian): > 100 µM
- GI50 (UACC-62 melanoma): 34 µM
- TGI (UACC-62 melanoma): > 100 µM
- GI50 (UO-31 renal): 37.1 µM
- TGI (UO-31 renal): > 100 µM
- GI50 (SK-OV-3 ovarian): 28.9 µM
- TGI (SK-OV-3 ovarian): 73.8 µM
- GI50 (OVCAR-4 ovarian): 44.1 µM
- TGI (OVCAR-4 ovarian): > 100 µM
- GI50 (KM12 colon): 17.5 µM
- TGI (KM12 colon): 49.5 µM
- GI50 (ACHN renal): 32.1 µM
- TGI (ACHN renal): > 100 µM
- GI50 (CCRF-CEM leukemia): 43.2 µM
- TGI (CCRF-CEM leukemia): > 100 µM
- GI50 (T-47D breast): 47.7 µM
- TGI (T-47D breast): > 100 µM
- GI50 (SK-MEL-5 melanoma): 19.5 µM
- TGI (SK-MEL-5 melanoma): 43.2 µM
- GI50 (NCI-H522 lung): 22.2 µM
- TGI (NCI-H522 lung): 57.3 µM
- GI50 (HL-60(TB) leukemia): 29.2 µM
- TGI (HL-60(TB) leukemia): > 100 µM
- GI50 (MDA-MB-231 breast): 31.6 µM
- TGI (MDA-MB-231 breast): 97 µM
- GI50 (NCI/ADR-RES ovarian): 28.3 µM
- TGI (NCI/ADR-RES ovarian): 82.5 µM
- GI50 (A498 renal): 29 µM
- TGI (A498 renal): 63.5 µM
